From article PMC9404711 (Antibiotics, 2022)
≈ marks a conversion by molar mass, not a printed value. Like-named read-outs stand apart in the source and are kept apart here. Positions of bridges follow the written chain, without caps; N, C: chain ends. Non-standard residues stand in square brackets, D forms with d. Residues, ends and D or L forms follow the SMILES beside them. *: point of attachment. X1 = CC[C@H](C)CCCCC(=O)*; Dab = NCC[C@H](N)C(=O)O; Butyryl = CCCC(=O)*

What was measured:
[1] = test system: E. coli (ATCC 25922); format: cell-based, Escherichia coli
Method: (§1) The following bacteria were grown in cation-adjusted Muller-Hinton broth at 37 °C with shaking: A. baumannii (ATCC 19606), E. coli (ATCC 25922), K. pneumoniae (ATCC 13883), P. aeruginosa (ATCC 27853), and S. aureus (ATCC 29213).
(§2) The MIC experiments were performed in triplicate, as described in Jensen et al.. Briefly, all peptide stock solutions were prepared by dissolving each peptide in Milli-Q water to obtain a concentration of 10 mg/mL. A bacterial concentration of 10^6 CFU/mL was obtained through the dilution of an overnight culture (MHB-II medium). When the overnight culture was prepared, the OD was measured using a spectrophotometer and when an OD value between 0.2 and 0.4 was obtained, the culture was diluted to OD = 0.002. The MIC determination was carried out in 96-well polypropylene microtitre plates. […] A final bacterial inoculum of 5 × 10^5 CFU/mL per well was obtained by adding 50 μL bacterial suspension to the microtiter plates. The plates were incubated at 37 °C for 18–24 h. To verify the CFU, 10 μL of bacteria suspension was transferred to 990 μL 0.9 % saline solution, from which a 10-fold dilution was carried out. Then, 100 μL of the dilution was plated on an LB plate and left for bacterial growth overnight at 37 °C. Colistin and vancomycin were used as the positive controls.

[2] = test system: K. pneumoniae (ATCC 13883); format: cell-based, Klebsiella pneumoniae
Method: as §1, §2

[3] = test system: A. baumannii (ATCC 19606); format: cell-based, Acinetobacter baumannii
Method: as §1, §2

[4] = test system: P. aeruginosa (ATCC 27853); format: cell-based, Pseudomonas aeruginosa
Method: as §1, §2

[5] = test system: S. aureus (ATCC 29213); assay: MIC determination, broth microdilution; format: cell-based, Staphylococcus aureus; details: for MIC SA: S. aureus ATCC 29213, MHB-II, 37 °C, 18–24 h, triplicate
Method: as §1, §2

[6] = test system: human erythrocytes; details: 150 μM peptide; 0.5% (v/v) red blood cell suspension in PBS, 1 h at 37 °C, absorbance 414 nm; melittin positive control, PBS negative control; three wells
Method: PBS served as the negative control and 5 μM melittin served as the positive control. All melittin solutions were prepared in Protein LoBind Eppendorf tubes to prevent the adsorption of melittin to the inner surface of the tubes.
Preparation of peptide solutions and melittin: A 5 μM melittin solution in PBS was prepared the day before the hemolysis experiment. First, 150 μL of this solution was transferred to each of the positive control wells and stored in the fume hood to coat the wells. On the day of the experiment, the melittin solution was discarded and the wells were washed with 3 × PBS. A 2.5 μM melittin solution in PBS was prepared and 75 μL was transferred to the wells. PBS (150 μL) was used as the negative control. A solution of each peptide was prepared by dissolving the peptide in 0.5 mL PBS to obtain a concentration of 300 μM. Each peptide solution (150 μL) was transferred to the wells in three wells each in row A, and the plate was diluted down.
Preparation of the red blood cell suspension: 1 mL of type O- whole blood in citrate was transferred to a cryotube. The whole blood was washed with 3 × PBS; adding 3, 3, and 4 mL of PBS, respectively. In between, the blood was centrifuged for 8 min (3000, 3000, and 4000 rpm, respectively) and the supernatant was removed after each centrifugation. A 0.5% (v/v) blood suspension was prepared by adding 40 μL of the washed blood cells to 8 mL of PBS. Then, 75 μL of the red blood cell suspension was transferred to each well and mixed gently. The plate was sealed and incubated for 1 h at 37 °C. After incubation, the plate was centrifuged at 4000 rpm for 10 min. Afterwards, 60 μL of the supernatant from each well was quickly transferred to an ELISA plate.
The absorbance was determined at 414 nm, and Equation (1) below was used to calculate the hemolytic activity of the peptides.

[7] = Hydrophobicity by analytical RP-HPLC (%B at elution); format: physicochemical; details: chromatographic, analytical reversed-phase HPLC, Waters Symmetry C18 5 μm 4.6 × 250 mm; A: H2O + 0.1% TFA, B: 90:10 ACN-H2O + 0.1% TFA
Method: Peptide purity was determined as described previously by analytical RP-HPLC using a Waters 717 plus Autosampler, In-line Degasser AF, 600 Controller, and 2996 Photodiode Array Detector; the column used was a Waters Symmetry C18 column (5 μm, 4.6 mm × 250 mm, Milford, MA, USA). An aqueous acetonitrile (ACN) gradient with 0.1% TFA added (mixing eluent A: H2O + 0.1% TFA and eluent B: 90:10 ACN-H2O + 0.1% TFA) was employed using milli-Q water. Preparative RP-HPLC was performed by using a Waters XSelect Peptide CSH C18 OBDTM column (5 μm, 19 mm × 250 mm, Milford, MA, USA) with the same eluents as for analytical HPLC.
*Hydrophobicity as indicated by the percentage of mobile phase B (%B) at the peak elution time on analytical

[8] = E. coli ATCC 25922, MHB-II, inoculum 5 × 10^5 CFU/mL, 37 °C, 18–24 h, triplicate
[9] = K. pneumoniae ATCC 13883, MHB-II, inoculum 5 × 10^5 CFU/mL, 37 °C, 18–24 h, triplicate
[10] = A. baumannii ATCC 19606, MHB-II, inoculum 5 × 10^5 CFU/mL, 37 °C, 18–24 h, triplicate
[11] = P. aeruginosa ATCC 27853, MHB-II, inoculum 5 × 10^5 CFU/mL, 37 °C, 18–24 h, triplicate
[12] = value in brackets, E. coli ATCC 25922, MHB-II, 37 °C, 18–24 h, triplicate
[13] = value in brackets, K. pneumoniae ATCC 13883, MHB-II, 37 °C, 18–24 h, triplicate
[14] = value in brackets, A. baumannii ATCC 19606, MHB-II, 37 °C, 18–24 h, triplicate
[15] = value in brackets, P. aeruginosa ATCC 27853, MHB-II, 37 °C, 18–24 h, triplicate

| SMILES | MIC EC ([1]; ATCC 25922) [µM] | MIC EC [1, 8] [µg/mL] | MIC KP ([2]; ATCC 13883) [µM] | MIC KP [2, 9] [µg/mL] | MIC AB [3, 10] [µg/mL] | MIC AB ([3]; ATCC 19606) [µM] | MIC PA ([4]; ATCC 27853) [µM] | MIC PA [4, 11] [µg/mL] | MIC SA ([5]; inoculum 5 × 10^5 CFU/mL) [µg/mL] | MIC ([5]; Staphylococcus aureus, ATCC29213, read-out: MIC SA) [µM] | MIC SA ([5]; value in brackets) [µM] | MIC EC [1, 12] [µM] | MIC KP [2, 13] [µM] | MIC AB [3, 14] [µM] | MIC PA [4, 15] [µM] | % hemolysis of human erythrocytes [6] [%] | %B (hydrophobicity: percentage of mobile phase B at the peak elution time) [7] [%B] |
| --- | --- | --- | --- | --- | --- | --- | --- | --- | --- | --- | --- | --- | --- | --- | --- | --- | --- |
| CC[C@H](C)CCCCC(=O)N[C@@H](CCN)C(=O)N[C@H](C(=O)N[C@@H](CCN)C(=O)N[C@H]1CCNC(=O)[C@H]([C@@H](C)O)NC(=O)[C@H](CCN)NC(=O)[C@H](CCN)NC(=O)[C@H](CC(C)C)NC(=O)[C@@H](CC(C)C)NC(=O)[C@H](CCN)NC1=O)[C@@H](C)O [Colistin, reference compound] (X1-[Dab]T[Dab][Dab][Dab][dL]L[Dab][Dab]T; lactam 4-C (inferred); N-terminus assumed) | 0.2 | 0.25 | 0.4 | 0.5 | 0.25 | 0.2 | 0.4 | 0.5 |  |  |  |  |  |  |  |  |  |
| CN[C@H](CC(C)C)C(=O)N[C@H]1C(=O)N[C@@H](CC(N)=O)C(=O)N[C@H]2C(=O)N[C@H]3C(=O)N[C@H](C(=O)N[C@H](C(=O)O)c4cc(O)cc(O)c4-c4cc3ccc4O)[C@H](O)c3ccc(c(Cl)c3)Oc3cc2cc(c3O[C@@H]2O[C@H](CO)[C@@H](O)[C@H](O)[C@H]2O[C@H]2C[C@](C)(N)[C@H](O)[C@H](C)O2)Oc2ccc(cc2Cl)[C@H]1O [Vancomycin, reference compound] |  |  |  |  |  |  |  |  | 0.5 | 0.35 (≈ 0.507 µg/mL) |  |  |  |  |  |  |  |
| CCCC(=O)N[C@H](CCCCN)C(=O)N[C@H](CCCCN)C(=O)N[C@H](CC(C)C)C(=O)N[C@H](Cc1ccccc1)C(=O)N[C@H](CCCCN)C(=O)N[C@H](CCCCN)C(=O)N[C@@H](C(=O)N[C@H](CC(C)C)C(=O)N[C@H](CCCNC(=N)N)C(=O)N[C@H](Cc1ccc(O)cc1)C(=O)N[C@H](CC(C)C)C(N)=O)[C@H](C)CC [compound 1] (Butyryl-[dK][dK][dL][dF][dK][dK][dI][dL][dR][dY][dL]-NH2) |  | 2 |  | 4 | 2 |  |  | 32 | 64 |  | 42.1 | 1.3 | 2.6 | 1.3 | 21.1 | 100 |  |
| CCCCCCCCCCCC(=O)N[C@H](CCCCN)C(=O)N[C@H](CCCCN)C(=O)N[C@H](CC(C)C)C(=O)N[C@H](Cc1ccccc1)C(=O)N[C@H](CCCCN)C(=O)N[C@H](CCCCN)C(=O)N[C@@H](C(=O)N[C@H](CC(C)C)C(=O)N1CCCC[C@H](C(N)=O)NC(=O)[C@@H](Cc2ccc(O)cc2)NC(=O)[C@@H](CCCNC(=N)N)NC(=O)C1)[C@H](C)CC [compound 11] |  | 4 |  | 8 | 4 |  |  | 4 | 4 |  | 2.3 | 2.3 | 4.6 | 2.3 | 2.3 |  | 66.2 |
| CCCCCCCCCCCCCC(=O)N[C@H](CCCCN)C(=O)N[C@H](CCCCN)C(=O)N[C@H](CC(C)C)C(=O)N[C@H](Cc1ccccc1)C(=O)N[C@H](CCCCN)C(=O)N[C@H](CCCCN)C(=O)N[C@@H](C(=O)N[C@H](CC(C)C)C(=O)N1CCCC[C@H](C(N)=O)NC(=O)[C@@H](Cc2ccc(O)cc2)NC(=O)[C@@H](CCCNC(=N)N)NC(=O)C1)[C@H](C)CC [compound 12] |  | 8 |  | 4 | 16 |  |  | 16 | 8 |  | 4.6 | 4.6 | 2.3 | 9.3 | 9.3 |  | 70.0 |
| CCCCCCCCCCCC(=O)N[C@H](CCCCN)C(=O)N[C@H](CCCCN)C(=O)N[C@H](CC(C)C)C(=O)N[C@H](Cc1ccccc1)C(=O)N[C@H](CCCCN)C(=O)N[C@H](CCCCN)C(=O)N[C@@H](C(=O)N1CCCC[C@H](C(N)=O)NC(=O)[C@@H](Cc2ccc(O)cc2)NC(=O)[C@@H](CCCNC(=N)N)NC(=O)[C@@H](CC(C)C)NC(=O)C1)[C@H](C)CC [compound 14] |  | 4 |  | 16 | 4 |  |  | 4 | 4 |  | 2.4 | 2.4 | 9.5 | 2.4 | 2.4 |  | 65.1 |
| CCCCCCCCCCCC(=O)N[C@H](CCCCN)C(=O)N[C@H](CCCCN)C(=O)N[C@H](CC(C)C)C(=O)N[C@H](Cc1ccccc1)C(=O)N[C@H](CCCCN)C(=O)N[C@H](CCCCN)C(=O)N1CCCC[C@H](C(N)=O)NC(=O)[C@@H](Cc2ccc(O)cc2)NC(=O)[C@@H](CCCNC(=N)N)NC(=O)[C@@H](CC(C)C)NC(=O)[C@@H]([C@H](C)CC)NC(=O)C1 [compound 17] |  | 8 |  |  | 4 |  |  | 8 | 4 |  | 2.4 | 4.7 |  | 2.4 | 4.8 |  | 65.5 |
| CCCCCCCCCCCCCC(=O)N[C@H](CCCCN)C(=O)N[C@H](CCCCN)C(=O)N[C@H](CC(C)C)C(=O)N[C@H](Cc1ccccc1)C(=O)N[C@H](CCCCN)C(=O)N[C@H](CCCCN)C(=O)N1CCCC[C@H](C(N)=O)NC(=O)[C@@H](Cc2ccc(O)cc2)NC(=O)[C@@H](CCCNC(=N)N)NC(=O)[C@@H](CC(C)C)NC(=O)[C@@H]([C@H](C)CC)NC(=O)C1 [compound 18] |  | 8 |  | 32 | 4 |  |  | 16 | 4 |  | 2.3 | 4.6 | 18.7 | 2.3 | 9.3 |  | 78.5 |
